Test results: patent US11974993B2, “Solution formulations of CX-011” (City of Hope, priority 2021, dated 2024)
Entries after “also recorded” stand apart in the source; their conditions may differ.

Tests used:
[1] = Dissolution of solid CX-011 in solvents and excipient solutions, determined by visual inspection; type: physicochemical
Protocol: Confirmation of dissolution can be confirmed by visual inspection, either by the naked eye or by microscope, to detect the presence of undissolved particles. Spectroscopic methods can also be used, such as light scattering detection or absorbance spectroscopy. Apparatuses for such spectroscopic detection are well-known in the art.
Solid CX-011 (5 mg) was mixed in a solution of 20%-40% 2-Hydroxypropyl)-β-cyclodextrin (Accelachem) in water (10 mL) and the mixture sonicated for 30 minutes. Dissolution determined by visual inspection. Not soluble.
Solid CX-011 (5 mg) was mixed in a solution of 20%-40% 2-Hydroxypropyl)-β-cyclodextrin (Accelachem) in water (10 mL) and 50 μL 1N HCl and the mixture sonicated for 30 minutes. Dissolution determined by visual inspection. Not soluble.
Solid CX-011 (4 mg) was mixed in a solution of 3N HCl aqueous (2 mL) and the mixture sonicated for 30 minutes. Dissolution determined by visual inspection. Not soluble.
Solid CX-011 (2.6 mg) was mixed in a solution of ˜4N HCl in methanol (200 uL) and the mixture sonicated for 30 minutes. Dissolution determined by visual inspection. Not soluble.
Solvent was evaporated. The remaining residue was washed with ether twice, then dried. The dried residue was mixed with water (10 mL) and the mixture sonicated for 30 minutes. Dissolution determined by visual inspection. Not soluble.
Solid CX-011 (1 mg) was mixed in a solution of 10% polyvinylpyrrolidone K-30 (10 mL) and the mixture sonicated for 30 minutes. Dissolution determined by visual inspection. Not soluble.
Solid CX-011 (1.5 mg) was mixed in ethanol (0.5 mL) and the mixture sonicated for 30 minutes. Dissolution determined by visual inspection. Not soluble.
Solid CX-011 (3 mg) was mixed in propylene glycol (0.5 mL) (Spectrum) and the mixture sonicated for 30 minutes. Dissolution determined by visual inspection. Not soluble.
Water (0.5 mL) was added.
Solid CX-011 (2.8 mg) was added to PEG400 (0.5 mL) (Spectrum) and mixed on a vortexer until dissolved. Water (0.5 mL) was added.
Solid CX-011 (3.0 mg) was mixed in 30% Kolliphor® HS 15 (5 mL) (Sigma) and the mixture sonicated for 30 minutes. Dissolution determined by visual inspection.
Solid CX-011 (15 mg) was mixed in polysorbate 80 (1 mL) and the mixture sonicated for 30 minutes. The solution was clear.
(§1) 15 mg CX-011 was added to a 50 mL tube. A volume of 5-10 mL 30% kolliphor HS was added. […] Distilled water or other physiology buffer, for example, PBS or saline was added to the above completely dissolved solution to final volume 100 mL with gently stirring. The solution can be filtered through 0.22 um filter. The appearance and pH value was noted. The solution was clear with pH value 5-5.5 for water and saline solution and is 7.2 for PBS solution. […] The final Kolliphor HS concentration in solution is about 1.5%-3%.

[2] = system: aggrecan and collagen neoepitopes; details: disclosed in U.S. Patent Publication No. 2020/0377494A1; cited from earlier work
[3] = Properties of the CX-011 solution in Kolliphor HS 15: pH, 0.22 um filtration with UV absorbance at 323 nm, storage stability by appearance and HPLC; type: physicochemical
Protocol: Preparation of 30% (w/v) Kolliphor HS 15 in aqueous solution. Solid Kolliphor HS 15 was immersed in a water bath at 37° C. until melted. A 30% (w/v) solution was prepared by vortex mixing Kolliphor HS 15 with an appropriate amount of distilled water. The mixture was filtered through a 0.22 um PES filter (Corning).
as §1

[4] = system: pSTAT3 and MYC; details: disclosed in U.S. Patent Publication No. 2020/0377494A1; cited from earlier work

- Dissolution by visual inspection ([1]; Example 1: 5 mg in 10 mL 20%-40% 2-hydroxypropyl-β-cyclodextrin in water, sonicated 30 minutes): Not soluble
- Dissolution by visual inspection ([1]; Example 2: 5 mg in 10 mL 20%-40% 2-hydroxypropyl-β-cyclodextrin in water plus 50 μL 1N HCl, sonicated 30 minutes): Not soluble
- Dissolution by visual inspection ([1]; Example 3: 4 mg in 2 mL 3N HCl aqueous, sonicated 30 minutes): Not soluble
- Dissolution by visual inspection ([1]; Example 4: 2.6 mg in 200 uL ~4N HCl in methanol, sonicated 30 minutes): Not soluble
- Dissolution by visual inspection ([1]; Example 5: 6 mg treated with 1 eq MeSO3H in CH2Cl2, evaporated, dried residue in 10 mL water, sonicated 30 minutes): Not soluble
- Dissolution by visual inspection ([1]; Example 6: 1 mg in 10 mL 10% polyvinylpyrrolidone K-30, sonicated 30 minutes): Not soluble
- Dissolution by visual inspection ([1]; Example 7: 1.5 mg in 0.5 mL ethanol, sonicated 30 minutes): Not soluble
- Dissolution by visual inspection ([1]; Example 8: 3 mg in 0.5 mL propylene glycol, sonicated 30 minutes): Not soluble
- Appearance after addition of water ([1]; Example 9: 4 mg in 0.5 mL DMA, then 0.5 mL water added): Precipitation was observed
- Dissolution by visual inspection ([1]; Example 9: 4 mg in 0.5 mL DMA, vortexed): clear solution
- Appearance after addition of water ([1]; Example 10: 2.8 mg in 0.5 mL PEG400, then 0.5 mL water added): Precipitation was observed
- Dissolution by visual inspection ([1]; Example 10: 2.8 mg in 0.5 mL PEG400, vortexed): dissolved
- Dissolution by visual inspection ([1]; Example 11: 3.0 mg in 5 mL 30% Kolliphor HS 15, sonicated 30 minutes): Dissolved—clear solution
- Dissolution by visual inspection ([1]; Example 12: 15 mg in 1 mL polysorbate 80, sonicated 30 minutes): clear
- Appearance after addition of water ([1]; Example 12: 15 mg in 1 mL polysorbate 80, then 10 mL water added): precipitate was observed
- Appearance of the diluted solution ([1]; Example 14: 15 mg diluted to 100 mL with water, PBS or saline, final Kolliphor HS about 1.5%-3%): clear
- Dissolution by visual inspection ([1]; Example 14: 15 mg in 5-10 mL 30% Kolliphor HS, sonicated 2 hours): clear solution
- Difference of the concentration of CX-011 before or after filtration ([3]; Example 14: 0.22 um filter, UV absorbance at 323 nm): no significant difference
- pH value of the solution ([3]; Example 14: PBS solution): 7.2
- pH value of the solution ([3]; Example 14: water and saline solution): 5-5.5
- Appearance of the solution on storage ([3]; Example 14 solution, after 1 week at room temperature): remained clear
- Stability of the compound by HPLC analysis ([3]; Example 14 solution, under preparation and storage): stable
Structure (SMILES): Cc1ccc(-c2csc(NC(=O)c3ccccn3)n2)cc1 [CX-011]
- Solubility in aqueous solution ([1]; aqueous solution, general statement): poorly soluble; also recorded: poor solubility
- Generation of aggrecan and collagen neoepitopes [2]: almost completely blocked
- Levels of pSTAT3 and MYC [4]: did not increase
